Drawing on patent US11780805B2, “Carbamoyl phenylalaninol compounds and uses thereof” (AXSOME MALTA LTD., priority 2016, dated 2023), this text covers inhibition for 2 compounds.

In test [1] the target is norepinephrine transporter (NET) (Homo sapiens, UniProt P23975). Kind of test: Competitive radioligand binding assay, NET. To be noted: compound at 10 μM; radioligand protriptyline; cell membrane fractions; read-out: % Inhibition of Binding at Each Transporter or Receptor Target, NET. On the procedure:
(§1) Compound 2 was tested for pharmacological activity in comparison to APC. Eight binding assays were carried out to provide a binding profile for each compound, including binding to dopamine transporter (DAT), norepinephrine transporter (NET), serotonin (5-HT) transporter (SERT), alpha2A adrenergic receptor (Alpha2A), alpha2C adrenergic receptor (Alpha2C), D2S dopamine receptor (D2S), D2L, dopamine receptor (D2L), and vesicular monoamine transporter (VMAT2). Competitive binding assays using a radiolabeled ligand were carried out with each compound at 10 μM. The radioligand for each target was as follows: DAT—BTCP, NET—protriptyline, SERT—imipramine Alpha2A—yohimbine, Alpha2C—yohimbine, D2S—7-OH-DPAT, D2L—butaclamol, VMAT2—tetrabenazine. The source of the receptors and transporters were prepared cell membrane fractions.

Test [2] has as its target D2L, dopamine receptor (D2L) (Homo sapiens, UniProt P14416). The experiment in a line: Competitive radioligand binding assay, D2L. To be noted: compound at 10 μM; radioligand butaclamol; cell membrane fractions; read-out: % Inhibition of Binding at Each Transporter or Receptor Target, D2L. On the procedure:
as §1

Test [3] concerns the target T1, alpha2A adrenergic receptor (Alpha2A) (Homo sapiens, UniProt P08913).
T1 sequence (P08913 1-465): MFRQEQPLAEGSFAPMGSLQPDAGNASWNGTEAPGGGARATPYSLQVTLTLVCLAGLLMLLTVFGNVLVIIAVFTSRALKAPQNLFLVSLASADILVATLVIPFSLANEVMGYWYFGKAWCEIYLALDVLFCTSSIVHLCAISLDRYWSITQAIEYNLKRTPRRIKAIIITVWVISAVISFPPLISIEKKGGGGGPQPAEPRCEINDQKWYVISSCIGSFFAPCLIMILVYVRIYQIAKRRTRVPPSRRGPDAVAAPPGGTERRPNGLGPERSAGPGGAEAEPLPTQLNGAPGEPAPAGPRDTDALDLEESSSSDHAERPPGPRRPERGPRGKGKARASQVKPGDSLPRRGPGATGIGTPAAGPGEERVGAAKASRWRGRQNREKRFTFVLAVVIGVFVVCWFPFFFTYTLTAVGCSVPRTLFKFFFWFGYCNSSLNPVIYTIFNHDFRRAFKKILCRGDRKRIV
Kind of test: Competitive radioligand binding assay, Alpha2A. The note with it: compound at 10 μM; radioligand yohimbine; cell membrane fractions; read-out: % Inhibition of Binding at Each Transporter or Receptor Target, Alpha2A. On the procedure: as §1

Test [4] deals with D2S dopamine receptor (D2S) (Homo sapiens, UniProt P14416). The experiment in a line: Competitive radioligand binding assay, D2S. To be noted: compound at 10 μM; radioligand 7-OH-DPAT; cell membrane fractions; read-out: % Inhibition of Binding at Each Transporter or Receptor Target, D2S. On the procedure:
as §1

Test [5] deals with serotonin (5-HT) transporter (SERT) (Homo sapiens, UniProt P31645). Kind of test: Competitive radioligand binding assay, SERT. To be noted: compound at 10 μM; radioligand imipramine; cell membrane fractions; read-out: % Inhibition of Binding at Each Transporter or Receptor Target, SERT. On the procedure: as §1
The target in test [6] is T2, alpha2C adrenergic receptor (Alpha2C) (Homo sapiens, UniProt P18825).
T2 sequence (P18825 1-462): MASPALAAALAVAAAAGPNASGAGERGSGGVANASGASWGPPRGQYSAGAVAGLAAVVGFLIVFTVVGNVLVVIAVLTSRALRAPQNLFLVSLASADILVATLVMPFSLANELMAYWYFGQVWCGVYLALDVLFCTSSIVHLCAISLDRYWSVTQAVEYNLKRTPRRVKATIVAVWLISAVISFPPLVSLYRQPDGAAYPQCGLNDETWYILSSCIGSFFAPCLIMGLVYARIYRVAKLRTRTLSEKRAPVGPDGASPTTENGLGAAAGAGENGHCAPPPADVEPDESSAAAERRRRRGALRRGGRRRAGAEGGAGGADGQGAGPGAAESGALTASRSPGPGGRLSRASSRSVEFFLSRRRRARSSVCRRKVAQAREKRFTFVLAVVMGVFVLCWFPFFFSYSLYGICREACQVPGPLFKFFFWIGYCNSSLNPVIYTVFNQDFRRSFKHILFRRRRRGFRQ
The experiment in a line: Competitive radioligand binding assay, Alpha2C. The note with it: compound at 10 μM; radioligand yohimbine; cell membrane fractions; read-out: % Inhibition of Binding at Each Transporter or Receptor Target, Alpha2C. On the procedure:
as §1

In test [7] the target is vesicular monoamine transporter (VMAT2) (Homo sapiens, UniProt Q05940). Kind of test: Competitive radioligand binding assay, VMAT2. The note with it: compound at 10 μM; radioligand tetrabenazine; cell membrane fractions; read-out: % Inhibition of Binding at Each Transporter or Receptor Target, VMAT2. On the procedure: as §1
For test [8], the target named is dopamine transporter (DAT) (Homo sapiens, UniProt Q01959). Kind of test: Competitive radioligand binding assay, DAT. To be noted: compound at 10 μM; radioligand BTCP; cell membrane fractions; read-out: % Inhibition of Binding at Each Transporter or Receptor Target, DAT. On the procedure: as §1
Sequence of dopamine transporter (DAT) (Q01959 whole entry, species assumed): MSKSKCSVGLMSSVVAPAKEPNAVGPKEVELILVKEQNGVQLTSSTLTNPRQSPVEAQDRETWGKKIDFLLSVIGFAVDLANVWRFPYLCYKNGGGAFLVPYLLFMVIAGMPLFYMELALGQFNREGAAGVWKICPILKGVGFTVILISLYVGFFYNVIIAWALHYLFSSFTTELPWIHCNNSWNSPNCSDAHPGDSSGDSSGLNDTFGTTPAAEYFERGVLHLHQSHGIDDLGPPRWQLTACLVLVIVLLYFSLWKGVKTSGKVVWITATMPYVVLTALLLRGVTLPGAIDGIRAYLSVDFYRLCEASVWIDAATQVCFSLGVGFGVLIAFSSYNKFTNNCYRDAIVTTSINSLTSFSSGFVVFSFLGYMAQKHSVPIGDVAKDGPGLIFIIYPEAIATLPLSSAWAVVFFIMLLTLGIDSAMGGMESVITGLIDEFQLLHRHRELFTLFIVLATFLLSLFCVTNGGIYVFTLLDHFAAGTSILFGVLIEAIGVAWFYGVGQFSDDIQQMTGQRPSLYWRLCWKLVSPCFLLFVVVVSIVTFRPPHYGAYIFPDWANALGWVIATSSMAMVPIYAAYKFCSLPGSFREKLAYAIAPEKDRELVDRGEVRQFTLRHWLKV

Sequence of D2L, dopamine receptor (D2L) (P14416 whole entry): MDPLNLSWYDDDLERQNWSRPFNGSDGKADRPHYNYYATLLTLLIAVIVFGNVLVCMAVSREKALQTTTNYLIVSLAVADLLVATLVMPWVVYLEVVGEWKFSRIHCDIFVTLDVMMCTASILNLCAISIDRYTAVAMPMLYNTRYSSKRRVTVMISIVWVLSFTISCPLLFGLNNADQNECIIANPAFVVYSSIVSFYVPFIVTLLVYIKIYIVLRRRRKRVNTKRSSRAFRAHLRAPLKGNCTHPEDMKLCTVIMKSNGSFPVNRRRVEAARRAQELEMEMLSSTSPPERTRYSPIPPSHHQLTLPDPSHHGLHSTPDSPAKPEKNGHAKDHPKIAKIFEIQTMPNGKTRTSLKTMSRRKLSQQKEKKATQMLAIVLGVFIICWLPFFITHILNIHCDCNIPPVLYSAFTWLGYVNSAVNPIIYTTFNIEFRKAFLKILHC
Sequence of norepinephrine transporter (NET) (P23975 whole entry, species assumed): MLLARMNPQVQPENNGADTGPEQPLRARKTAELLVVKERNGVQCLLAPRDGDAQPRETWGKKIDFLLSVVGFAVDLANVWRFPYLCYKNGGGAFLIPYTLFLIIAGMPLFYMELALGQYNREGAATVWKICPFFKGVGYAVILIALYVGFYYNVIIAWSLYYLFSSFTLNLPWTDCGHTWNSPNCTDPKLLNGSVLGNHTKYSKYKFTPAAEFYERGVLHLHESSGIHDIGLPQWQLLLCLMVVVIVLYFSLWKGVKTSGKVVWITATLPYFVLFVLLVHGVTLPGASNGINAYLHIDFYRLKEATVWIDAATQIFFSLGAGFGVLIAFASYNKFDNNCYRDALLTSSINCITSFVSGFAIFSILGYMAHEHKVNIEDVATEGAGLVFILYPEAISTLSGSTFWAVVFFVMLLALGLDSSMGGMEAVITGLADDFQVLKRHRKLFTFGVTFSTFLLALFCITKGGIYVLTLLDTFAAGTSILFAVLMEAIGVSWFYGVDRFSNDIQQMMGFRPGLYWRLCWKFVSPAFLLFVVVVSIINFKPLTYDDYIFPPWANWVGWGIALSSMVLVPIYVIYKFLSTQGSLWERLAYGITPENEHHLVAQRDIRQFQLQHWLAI
Sequence of serotonin (5-HT) transporter (SERT) (P31645 whole entry, species assumed): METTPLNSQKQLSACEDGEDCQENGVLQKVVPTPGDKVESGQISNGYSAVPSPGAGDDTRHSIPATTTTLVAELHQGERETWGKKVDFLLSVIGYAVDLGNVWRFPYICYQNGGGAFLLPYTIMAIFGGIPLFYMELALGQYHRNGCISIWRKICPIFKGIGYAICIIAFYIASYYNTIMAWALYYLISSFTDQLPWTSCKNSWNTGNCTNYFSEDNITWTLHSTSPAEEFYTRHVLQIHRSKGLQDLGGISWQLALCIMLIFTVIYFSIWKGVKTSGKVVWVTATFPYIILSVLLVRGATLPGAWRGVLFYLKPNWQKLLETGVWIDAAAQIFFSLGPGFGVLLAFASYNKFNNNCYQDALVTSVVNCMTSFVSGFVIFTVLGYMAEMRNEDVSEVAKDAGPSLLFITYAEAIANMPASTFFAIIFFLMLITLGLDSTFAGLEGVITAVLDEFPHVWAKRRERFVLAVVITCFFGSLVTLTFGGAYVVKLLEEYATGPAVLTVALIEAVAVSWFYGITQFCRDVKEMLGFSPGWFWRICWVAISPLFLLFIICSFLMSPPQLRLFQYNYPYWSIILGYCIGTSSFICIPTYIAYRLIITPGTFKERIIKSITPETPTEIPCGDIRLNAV
Sequence of D2S dopamine receptor (D2S) (P14416 1-414 isoform P14416-2): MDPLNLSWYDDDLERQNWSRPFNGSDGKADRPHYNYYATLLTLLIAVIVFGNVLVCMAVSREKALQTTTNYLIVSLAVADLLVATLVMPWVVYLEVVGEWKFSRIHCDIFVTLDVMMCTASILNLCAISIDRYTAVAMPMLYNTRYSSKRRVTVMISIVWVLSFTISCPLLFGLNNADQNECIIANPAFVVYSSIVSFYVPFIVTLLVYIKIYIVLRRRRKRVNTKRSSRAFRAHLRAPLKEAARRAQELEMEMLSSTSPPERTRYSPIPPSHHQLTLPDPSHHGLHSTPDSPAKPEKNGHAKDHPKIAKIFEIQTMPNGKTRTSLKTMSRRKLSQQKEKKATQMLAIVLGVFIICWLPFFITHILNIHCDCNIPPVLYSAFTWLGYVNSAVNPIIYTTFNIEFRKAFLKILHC
Sequence of vesicular monoamine transporter (VMAT2) (Q05940 whole entry, species assumed): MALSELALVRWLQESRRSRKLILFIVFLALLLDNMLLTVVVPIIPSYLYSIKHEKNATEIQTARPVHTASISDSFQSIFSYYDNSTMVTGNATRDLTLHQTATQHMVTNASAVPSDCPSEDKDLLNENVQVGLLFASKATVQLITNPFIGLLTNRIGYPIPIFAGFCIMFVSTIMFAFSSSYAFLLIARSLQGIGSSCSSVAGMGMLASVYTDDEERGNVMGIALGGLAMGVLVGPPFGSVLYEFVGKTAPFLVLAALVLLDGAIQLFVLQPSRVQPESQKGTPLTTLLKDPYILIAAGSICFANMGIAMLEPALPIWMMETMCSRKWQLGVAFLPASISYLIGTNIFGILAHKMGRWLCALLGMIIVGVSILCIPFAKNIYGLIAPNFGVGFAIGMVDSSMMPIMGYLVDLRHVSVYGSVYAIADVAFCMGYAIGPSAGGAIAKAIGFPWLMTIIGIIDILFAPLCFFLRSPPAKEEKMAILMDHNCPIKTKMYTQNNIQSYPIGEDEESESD

Regarding `NC(=O)OC[C@H](N)Cc1ccccc1` [APC, (R)-2-amino-3-phenylpropyl carbamate], the inhibition at 10 µM was 6.2% in test [1]; -3.4% in test [2]; 16.5% in test [3]; 18.7% in test [4]; 4% in test [5]; 7.4% in test [6]. In addition, the inhibition at 10 µM in test [7] was determined as 12%; in test [8], 81.4%.

As to `NC(=O)NC(=O)OC[C@H](N)Cc1ccccc1` [Compound 2, D-phenylalaninol allophanate], the inhibition at 10 µM in test [1] is 2.7%; in test [2] it was -5.5%; in test [3], 28%; in test [4], 11.8%; in test [5] it was 3.4%; in test [6], 52.1%. In addition, the figures for the inhibition at 10 µM in test [7] and in test [8] were -1% and 80.6%, respectively.
